{
  "source": "paper PMC7156458",
  "about": "“Synthetic biology based construction of biological activity-related library of fungal decalin-containing diterpenoid pyrones” (Nature Communications, 2020)",
  "target": "Aβ42 (Homo sapiens, UniProt P05067)",
  "sequence (P05067 672-713)": "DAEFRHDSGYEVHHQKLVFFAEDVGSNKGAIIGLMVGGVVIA",
  "assay": "Th-T (thioflavin-T) assay of Aβ42 aggregation",
  "format": "biochemical",
  "settings": "for Th-T fluorescence, mean of three wells: compound at 50",
  "data": [
    {"smiles": "C=C1CCC2C(C)(CCC=C(C)C)C(O)CCC2(C)C1Cc1c(OC)oc(C)c(C(=O)OC)c1=O", "note": "(stereo not drawn) [Compound 14]", "values": [
      {"measurement": "Th-T fluorescence, mean of three wells", "setting": "reading M54 of time course", "value": 4.776},
      {"measurement": "Th-T fluorescence, mean of three wells", "setting": "reading M55 of time course", "value": 4.689},
      {"measurement": "Th-T fluorescence, mean of three wells", "setting": "reading M56 of time course", "value": 4.625},
      {"measurement": "Th-T fluorescence, mean of three wells", "setting": "reading M57 of time course", "value": 4.524},
      {"measurement": "Th-T fluorescence, mean of three wells", "setting": "reading M58 of time course", "value": 4.45},
      {"measurement": "Th-T fluorescence, mean of three wells", "setting": "reading M59 of time course", "value": 4.296},
      {"measurement": "Th-T fluorescence, mean of three wells", "setting": "reading M60 of time course", "value": 4.2063},
      {"measurement": "Th-T fluorescence, mean of three wells", "setting": "reading M61 of time course", "value": 4.042},
      {"measurement": "Th-T fluorescence, mean of three wells", "setting": "reading M62 of time course", "value": 3.946},
      {"measurement": "Th-T fluorescence of Aβ42 with compound, mean of three wells (Fig. 7a source data)", "setting": "concentration 10, unit not given, time-course reading M129", "value": 2.897},
      {"measurement": "Th-T fluorescence of Aβ42 with compound, mean of three wells (Fig. 7a source data)", "setting": "concentration 10, unit not given, time-course reading M130", "value": 2.933},
      {"measurement": "Th-T fluorescence of Aβ42 with compound, mean of three wells (Fig. 7a source data)", "setting": "concentration 10, unit not given, time-course reading M131", "value": 2.925},
      {"measurement": "Th-T fluorescence of Aβ42 with compound, mean of three wells (Fig. 7a source data)", "setting": "concentration 10, unit not given, time-course reading M132", "value": 2.913},
      {"measurement": "Th-T fluorescence of Aβ42 with compound, mean of three wells (Fig. 7a source data)", "setting": "concentration 10, unit not given, time-course reading M133", "value": 2.914},
      {"measurement": "Th-T fluorescence of Aβ42 with compound, mean of three wells (Fig. 7a source data)", "setting": "concentration 10, unit not given, time-course reading M134", "value": 2.928},
      {"measurement": "Th-T fluorescence of Aβ42 with compound, mean of three wells (Fig. 7a source data)", "setting": "concentration 10, unit not given, time-course reading M135", "value": 2.926},
      {"measurement": "Th-T fluorescence of Aβ42 with compound, mean of three wells (Fig. 7a source data)", "setting": "concentration 10, unit not given, time-course reading M136", "value": 2.935},
      {"measurement": "Th-T fluorescence of Aβ42 with compound, mean of three wells (Fig. 7a source data)", "setting": "concentration 10, unit not given, time-course reading M137", "value": 2.902},
      {"measurement": "Th-T fluorescence of Aβ42 with compound, mean of three wells (Fig. 7a source data)", "setting": "concentration 10, unit not given, time-course reading M138", "value": 2.929},
      {"measurement": "Th-T fluorescence of Aβ42 with compound, mean of three wells (Fig. 7a source data)", "setting": "concentration 10, unit not given, time-course reading M139", "value": 2.934},
      {"measurement": "Th-T fluorescence of Aβ42 with compound, mean of three wells (Fig. 7a source data)", "setting": "concentration 10, unit not given, time-course reading M140", "value": 2.924},
      {"measurement": "Th-T fluorescence of Aβ42 with compound, mean of three wells (Fig. 7a source data)", "setting": "concentration 10, unit not given, time-course reading M141", "value": 2.927},
      {"measurement": "Th-T fluorescence of Aβ42 with compound, mean of three wells (Fig. 7a source data)", "setting": "concentration 10, unit not given, time-course reading M142", "value": 2.953},
      {"measurement": "Th-T fluorescence of Aβ42 with compound, mean of three wells (Fig. 7a source data)", "setting": "concentration 10, unit not given, time-course reading M143", "value": 2.943},
      {"measurement": "Th-T fluorescence of Aβ42 with compound, mean of three wells (Fig. 7a source data)", "setting": "concentration 10, unit not given, time-course reading M144", "value": 2.936},
      {"measurement": "Th-T fluorescence of Aβ42 with compound, mean of three wells (Fig. 7a source data)", "setting": "concentration 10, unit not given, time-course reading M145", "value": 2.952},
      {"measurement": "Th-T fluorescence of Aβ42 with compound, mean of three wells (Fig. 7a source data)", "setting": "concentration 20, unit not given, time-course reading M129", "value": 1.587},
      {"measurement": "Th-T fluorescence of Aβ42 with compound, mean of three wells (Fig. 7a source data)", "setting": "concentration 20, unit not given, time-course reading M130", "value": 1.596},
      {"measurement": "Th-T fluorescence of Aβ42 with compound, mean of three wells (Fig. 7a source data)", "setting": "concentration 20, unit not given, time-course reading M131", "value": 1.618},
      {"measurement": "Th-T fluorescence of Aβ42 with compound, mean of three wells (Fig. 7a source data)", "setting": "concentration 20, unit not given, time-course reading M132", "value": 1.578},
      {"measurement": "Th-T fluorescence of Aβ42 with compound, mean of three wells (Fig. 7a source data)", "setting": "concentration 20, unit not given, time-course reading M133", "value": 1.602},
      {"measurement": "Th-T fluorescence of Aβ42 with compound, mean of three wells (Fig. 7a source data)", "setting": "concentration 20, unit not given, time-course reading M134", "value": 1.594},
      {"measurement": "Th-T fluorescence of Aβ42 with compound, mean of three wells (Fig. 7a source data)", "setting": "concentration 20, unit not given, time-course reading M135", "value": 1.594},
      {"measurement": "Th-T fluorescence of Aβ42 with compound, mean of three wells (Fig. 7a source data)", "setting": "concentration 20, unit not given, time-course reading M136", "value": 1.5818},
      {"measurement": "Th-T fluorescence of Aβ42 with compound, mean of three wells (Fig. 7a source data)", "setting": "concentration 20, unit not given, time-course reading M137", "value": 1.578},
      {"measurement": "Th-T fluorescence of Aβ42 with compound, mean of three wells (Fig. 7a source data)", "setting": "concentration 20, unit not given, time-course reading M138", "value": 1.586},
      {"measurement": "Th-T fluorescence of Aβ42 with compound, mean of three wells (Fig. 7a source data)", "setting": "concentration 20, unit not given, time-course reading M139", "value": 1.563},
      {"measurement": "Th-T fluorescence of Aβ42 with compound, mean of three wells (Fig. 7a source data)", "setting": "concentration 20, unit not given, time-course reading M140", "value": 1.578},
      {"measurement": "Th-T fluorescence of Aβ42 with compound, mean of three wells (Fig. 7a source data)", "setting": "concentration 20, unit not given, time-course reading M141", "value": 1.561},
      {"measurement": "Th-T fluorescence of Aβ42 with compound, mean of three wells (Fig. 7a source data)", "setting": "concentration 20, unit not given, time-course reading M142", "value": 1.586},
      {"measurement": "Th-T fluorescence of Aβ42 with compound, mean of three wells (Fig. 7a source data)", "setting": "concentration 20, unit not given, time-course reading M143", "value": 1.575},
      {"measurement": "Th-T fluorescence of Aβ42 with compound, mean of three wells (Fig. 7a source data)", "setting": "concentration 20, unit not given, time-course reading M144", "value": 1.583},
      {"measurement": "Th-T fluorescence of Aβ42 with compound, mean of three wells (Fig. 7a source data)", "setting": "concentration 20, unit not given, time-course reading M145", "value": 1.572},
      {"measurement": "Th-T fluorescence of Aβ42 with compound, mean of three wells (Fig. 7a source data)", "setting": "concentration 50, unit not given, time-course reading M129", "value": 0.8842},
      {"measurement": "Th-T fluorescence of Aβ42 with compound, mean of three wells (Fig. 7a source data)", "setting": "concentration 50, unit not given, time-course reading M130", "value": 0.8634},
      {"measurement": "Th-T fluorescence of Aβ42 with compound, mean of three wells (Fig. 7a source data)", "setting": "concentration 50, unit not given, time-course reading M131", "value": 0.8505},
      {"measurement": "Th-T fluorescence of Aβ42 with compound, mean of three wells (Fig. 7a source data)", "setting": "concentration 50, unit not given, time-course reading M132", "value": 0.8369},
      {"measurement": "Th-T fluorescence of Aβ42 with compound, mean of three wells (Fig. 7a source data)", "setting": "concentration 50, unit not given, time-course reading M133", "value": 0.8131},
      {"measurement": "Th-T fluorescence of Aβ42 with compound, mean of three wells (Fig. 7a source data)", "setting": "concentration 50, unit not given, time-course reading M134", "value": 0.8297},
      {"measurement": "Th-T fluorescence of Aβ42 with compound, mean of three wells (Fig. 7a source data)", "setting": "concentration 50, unit not given, time-course reading M135", "value": 0.8031},
      {"measurement": "Th-T fluorescence of Aβ42 with compound, mean of three wells (Fig. 7a source data)", "setting": "concentration 50, unit not given, time-course reading M136", "value": 0.8035},
      {"measurement": "Th-T fluorescence of Aβ42 with compound, mean of three wells (Fig. 7a source data)", "setting": "concentration 50, unit not given, time-course reading M137", "value": 0.7873},
      {"measurement": "Th-T fluorescence of Aβ42 with compound, mean of three wells (Fig. 7a source data)", "setting": "concentration 50, unit not given, time-course reading M138", "value": 0.78},
      {"measurement": "Th-T fluorescence of Aβ42 with compound, mean of three wells (Fig. 7a source data)", "setting": "concentration 50, unit not given, time-course reading M139", "value": 0.7658},
      {"measurement": "Th-T fluorescence of Aβ42 with compound, mean of three wells (Fig. 7a source data)", "setting": "concentration 50, unit not given, time-course reading M140", "value": 0.7572},
      {"measurement": "Th-T fluorescence of Aβ42 with compound, mean of three wells (Fig. 7a source data)", "setting": "concentration 50, unit not given, time-course reading M141", "value": 0.7413},
      {"measurement": "Th-T fluorescence of Aβ42 with compound, mean of three wells (Fig. 7a source data)", "setting": "concentration 50, unit not given, time-course reading M142", "value": 0.7418}
    ]}
  ]
}
